Source: patent US8173689B2 (Novartis AG, priority 2006, dated 2012)
Like-named read-outs stand apart in the source and are kept apart here. One block for each compound: values may come before it.

Assays:
[1] = target: T1, cytoplasmic domain of the human CSF-1R (Homo sapiens, UniProt P07333); experiment: In vitro kinase assay for colony stimulating factor-1 receptor (AlphaScreen); assay type: biochemical; settings: tested at about 1 μM; for CSF-1R percent inhibition: compounds of Table 4; for inhibition at 1 µM: read-out: CSF-1R percent inhibition
T1 construct: Recombinant protein corresponding to the cytoplasmic domain of the human CSF-1R; purchased Invitrogen Corporation, Carlsbad, Calif; PV3249
T1 sequence (P07333 539-972 limits assumed): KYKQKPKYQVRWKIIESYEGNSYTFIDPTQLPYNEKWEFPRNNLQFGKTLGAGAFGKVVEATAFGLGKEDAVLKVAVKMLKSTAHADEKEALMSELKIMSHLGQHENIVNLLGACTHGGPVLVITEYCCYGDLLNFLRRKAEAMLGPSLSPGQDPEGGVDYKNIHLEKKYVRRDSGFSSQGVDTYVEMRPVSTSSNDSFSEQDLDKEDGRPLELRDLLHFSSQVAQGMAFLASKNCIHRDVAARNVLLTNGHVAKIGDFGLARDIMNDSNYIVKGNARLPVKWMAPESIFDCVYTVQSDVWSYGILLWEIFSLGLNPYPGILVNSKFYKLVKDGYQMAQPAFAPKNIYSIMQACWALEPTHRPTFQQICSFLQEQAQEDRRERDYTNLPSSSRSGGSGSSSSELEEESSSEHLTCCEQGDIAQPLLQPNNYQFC
Protocol: The kinase activity of various protein tyrosine kinases can be measured by providing ATP and a suitable peptide or protein tyrosine-containing substrate, and assaying the transfer of phosphate moiety to the tyrosine residue. Recombinant protein corresponding to the cytoplasmic domain of the human CSF-1R was purchased from Invitrogen Corporation, Carlsbad, Calif. U.S.A. (#PV3249). For each assay, test compounds were serially diluted, starting at 25 μM with 3 fold dilutions, in DMSO in 384 well plates then mixed with an appropriate kinase reaction buffer consisting of 50 mM Hepes, 5 mM MgCl2, 10 mM MnCl2, 0.1% BSA, pH 7.5, 1.0 mM dithiothreitol, 0.01% Tween 80 plus 1 μM ATP. […] Added to the stopped reaction mix was 30 μL of PT66 Alphascreen beads (Perkin Elmer, Boston, Mass., U.S.A.). The reaction was incubated overnight and read on the Envision (Perkin Elmer). Phosphorylated peptide product was measured with the AlphaScreen system (Perkin Elmer) using acceptor beads coated with anti-phosphotyrosine antibody PT66 and donor beads coated with streptavidin that emit a fluorescent signal at the 520-620 nm emission wave length if in close proximity.
CSF-1R kinase was added at final concentration of 4 nM.

[2] = target: T2, kinase domain of cKIT (Homo sapiens, UniProt P10721); experiment: Inhibition of cKIT kinase signaling in an in vitro biochemical assay (alphascreen); settings: tested at about 1 μM; for cKit percent inhibition: compounds of Table 4; for inhibition at 1 µM: read-out: cKit percent inhibition
T2 construct: The kinase domain of cKIT was assayed in 50 mM Hepes; purchased Upstate 14-559
T2 sequence (P10721 589-937 limits assumed): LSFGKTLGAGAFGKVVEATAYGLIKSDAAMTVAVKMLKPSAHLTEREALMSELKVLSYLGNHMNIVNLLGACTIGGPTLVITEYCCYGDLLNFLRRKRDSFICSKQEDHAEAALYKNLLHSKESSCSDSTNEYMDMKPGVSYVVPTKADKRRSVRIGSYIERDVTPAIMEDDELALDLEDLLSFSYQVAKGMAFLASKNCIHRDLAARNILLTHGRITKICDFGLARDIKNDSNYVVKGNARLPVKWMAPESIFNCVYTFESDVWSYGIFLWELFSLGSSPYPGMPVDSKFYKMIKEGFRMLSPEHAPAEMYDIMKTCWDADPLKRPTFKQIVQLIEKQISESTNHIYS
Protocol: (§1) The IC50 values for the inhibition of RTKs were determined in the alphascreen format measuring the inhibition by compound of phosphate transfer to a substrate by the respective enzyme. Briefly, the respective RTK domain purchased as human recombinant protein (cKIT Upstate #14-559, PDGFRb Invitrogen #P3082) were incubated with serial dilutions of compound in the presence of substrate and ATP concentrations within 3 times the Km of the enzyme.
(§2) Alphascreen PY20 beads were added to the stopped cKIT reactions and PY20 Ab/Protein A Alphascreen beads were added to the PDGFRβ stopped reactions. Both reactions were incubated overnight and read on the Alphascreen reader.

[3] = target: T3, kinase domain of PDGFRβ (Homo sapiens, UniProt P09619); experiment: Inhibition of PDGFRb kinase signaling in an in vitro biochemical assay (alphascreen); settings: tested at about 1 μM; for inhibition at 1 µM: read-out: PDGFRβ percent inhibition
T3 construct: The kinase domain of PDGFRβ was assayed in 50 mM Hepes; purchased Invitrogen P3082
T3 sequence (P09619 600-962 limits assumed): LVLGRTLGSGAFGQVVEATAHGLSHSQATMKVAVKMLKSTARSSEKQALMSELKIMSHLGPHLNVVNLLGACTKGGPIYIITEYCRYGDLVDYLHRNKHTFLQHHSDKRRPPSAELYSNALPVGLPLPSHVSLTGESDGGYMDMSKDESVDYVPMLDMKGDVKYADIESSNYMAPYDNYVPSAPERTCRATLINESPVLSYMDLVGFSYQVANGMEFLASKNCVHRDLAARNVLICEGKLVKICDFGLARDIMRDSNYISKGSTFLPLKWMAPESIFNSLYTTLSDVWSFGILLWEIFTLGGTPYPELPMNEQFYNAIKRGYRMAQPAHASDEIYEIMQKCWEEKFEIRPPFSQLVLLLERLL
Protocol: as §1, §2

inhibition at 1 µM [1]: 19%
inhibition at 1 µM [3]: 9%
Compound: CNC(=O)c1cc(Oc2ccc3nc(N[C@@H](C(=O)O)c4ccccc4)oc3c2)ccn1 [Compound 35, (R)-[6-(2-Methylcarbamoyl-pyridin-4-yloxy)-benzooxazol-2-ylamino]-phenyl-acetic acid]

inhibition at 1 µM [1]: 79%
inhibition at 1 µM [3]: 16%
Compound: CNC(=O)c1cc(Oc2ccc3nc(N[C@@H](CO)c4ccccc4)oc3c2)ccn1 [Compound 37, 4-[2-((R)-2-Hydroxy-1-phenyl-ethylamino)-benzooxazol-6-yloxy]-pyridine-2-carboxylic acid methylamide]

inhibition at 1 µM [1]: 34%
inhibition at 1 µM [3]: 14%
Compound: CNC(=O)c1cc(Oc2ccc3nc(N[C@H](C(=O)O)c4ccccc4)oc3c2)ccn1 [Compound 38, (S)-[6-(2-Methylcarbamoyl-pyridin-4-yloxy)-benzooxazol-2-ylamino]-phenyl-acetic acid]

inhibition at 1 µM [1]: 67%
inhibition at 1 µM [3]: 10%
Compound: CNC(=O)c1cc(Oc2ccc3nc(N[C@H](C(=O)NC)c4ccccc4)oc3c2)ccn1 [Compound 39, 4-{2-[((S)-Methylcarbamoyl-phenyl-methyl)-amino]-benzooxazol-6-yloxy}-pyridine-2-carboxylic acid methylamide]

inhibition at 1 µM [1]: 95%
inhibition at 1 µM [2]: 40%
inhibition at 1 µM [3]: 2%
Compound: CNC(=O)c1cc(Oc2ccc3nc(N[C@H](CCO)c4ccccc4)oc3c2)ccn1 [Compound 51, 4-[2-((R)-3-Hydroxy-1-phenyl-propylamino)-benzooxazol-6-yloxy]-pyridine-2-carboxylic acid methylamide]

inhibition at 1 µM [1]: 95%
inhibition at 1 µM [2]: 21%
inhibition at 1 µM [3]: 0%
Compound: CNC(=O)c1cc(Oc2ccc3nc(N[C@@H](C(=O)OC)c4ccccc4)oc3c2)ccn1 [Compound 53, (R)-[6-(2-Methylcarbamoyl-pyridin-4-yloxy)-benzooxazol-2-ylamino]-phenyl-acetic acid methyl ester]

inhibition at 1 µM [1]: 97%
inhibition at 1 µM [2]: 21%
inhibition at 1 µM [3]: 11%
Compound: CNC(=O)c1cc(Oc2ccc3nc(N[C@H](C(=O)OC)c4ccccc4)oc3c2)ccn1 [Compound 55, (S)-[6-(2-Methylcarbamoyl-pyridin-4-yloxy)-benzooxazol-2-ylamino]-phenyl-acetic acid methyl ester]

inhibition at 1 µM [1]: 66%
inhibition at 1 µM [2]: 55%
inhibition at 1 µM [3]: 0%
Compound: CNC(=O)c1cc(Oc2ccc3nc(N[C@H](CO)c4ccccc4)oc3c2)ccn1 [Compound 56, 4-[2-((S)-2-Hydroxy-1-phenyl-ethylamino)-benzooxazol-6-yloxy]-pyridine-2-carboxylic acid methylamide]

The remaining lines, values behind:

Compound: 4-(2-Cyclobutylamino- benzooxazol-6-yloxy)- pyridine-2-carboxylic acid methylamide [Compound 22]
CSF-1R percent inhibition [1]: 100%
cKit percent inhibition [2]: 89%
PDGFRβ percent inhibition ([3]; compounds of Table 4): 90%

Compound: 4-[2-(Benzo[1,3]dioxol-5-yl- amino)-benzooxazol-6- yloxy]-pyridine-2-carboxylic acid methylamide [Compound 95]
CSF-1R percent inhibition [1]: 100%
cKit percent inhibition [2]: 42%

Compound: O[C@@H]1CCCC[C@H]1Nc1nc2ccc(Oc3ccnc(C4CC4)c3)cc2s1 [Cmpd 169, (1R,2R)-2-(6-(2-cyclopropylpyridin-4-yloxy)benzo[d]thiazol-2-ylamino)cyclohexanol]
inhibition at 1 µM ([1]; compounds of Table 3): 75%
inhibition at 1 µM ([2]; compounds of Table 3): 12%
inhibition at 1 µM ([3]; compounds of Table 3): 0%

Compound: O[C@@H]1CCCC[C@H]1Nc1nc2ccc(Oc3ccnc(N4CCCCC4)c3)cc2s1 [Cmpd 174, (1R,2R)-2-(6-(2-(piperidin-1-yl)pyridin-4-yloxy)benzo[d]thiazol-2-ylamino)cyclohexanol]
inhibition at 1 µM ([1]; compounds of Table 3): 86%
inhibition at 1 µM ([2]; compounds of Table 3): 18%
inhibition at 1 µM ([3]; compounds of Table 3): 3%

Compound: CN1CCN(c2cc(Oc3ccc4nc(N[C@@H]5CCCC[C@H]5O)sc4c3)ccn2)CC1 [Cmpd 176, (1R,2R)-2-(6-(2-(4-methylpiperazin-1-yl)pyridin-4-yloxy)benzo[d]thiazol-2-ylamino)cyclohexanol]
inhibition at 1 µM ([1]; compounds of Table 3): 63%
inhibition at 1 µM ([2]; compounds of Table 3): 12%
inhibition at 1 µM ([3]; compounds of Table 3): 0%

Compound: CC(=O)N[C@@H]1CCN(c2cc(Oc3ccc4nc(N[C@@H]5CCCC[C@H]5O)sc4c3)ccn2)C1 [Cmpd 177, N-((R)-1-(4-(2-((1R,2R)-2-hydroxycyclohexylamino)benzo[d]thiazol-6-yloxy)pyridin-2-yl)pyrrolidin-3-yl)acetamide]
inhibition at 1 µM ([1]; compounds of Table 3): 67%
inhibition at 1 µM ([2]; compounds of Table 3): 15%
inhibition at 1 µM ([3]; compounds of Table 3): 0%

Compound: CC(=O)N[C@H]1CCN(c2cc(Oc3ccc4nc(N[C@@H]5CCCC[C@H]5O)sc4c3)ccn2)C1 [Cmpd 178, N-((S)-1-(4-(2-((1R,2R)-2-hydroxycyclohexylamino)benzo[d]thiazol-6-yloxy)pyridin-2-yl)pyrrolidin-3-yl)acetamide]
inhibition at 1 µM ([1]; compounds of Table 3): 82%
inhibition at 1 µM ([2]; compounds of Table 3): 17%
inhibition at 1 µM ([3]; compounds of Table 3): -3%

Compound: CNC(=O)c1cc(Oc2ccc3nc(NC(C)c4nccs4)oc3c2)ccn1 (stereo not drawn) [Compound 6, 4-[2-(1-Thiazol-2-yl-ethylamino)-benzooxazol-6-yloxy]-pyridine-2-carboxylic acid methylamide]
inhibition at 1 µM [1]: 85%

Compound: CN(C)C(=O)c1cc(Oc2ccc3nc(N[C@@H]4CCCC[C@H]4O)sc3c2)ccn1 [Compound 10]
inhibition at 1 µM ([1]; compounds of Table 3): 67%
inhibition at 1 µM ([2]; compounds of Table 3): 0%
inhibition at 1 µM ([3]; compounds of Table 3): 9%

Compound: CNC(=O)c1cc(Oc2ccc3nc(N[C@@H](C)c4ccc5ccccc5c4)oc3c2)ccn1 [Compound 20, 4-[2-((S)-1-Naphthalen-2-yl-ethylamino)-benzooxazol-6-yloxy]-pyridine-2-carboxylic acid methylamide]
inhibition at 1 µM [1]: 15%
inhibition at 1 µM [3]: 0%

Compound: CCN1CCC[C@H]1CNC(=O)c1cc(Oc2ccc3nc(N[C@@H]4CCCC[C@H]4O)sc3c2)ccn1 [Compound 20]
inhibition at 1 µM ([1]; compounds of Table 3): 76%
inhibition at 1 µM ([2]; compounds of Table 3): 0%
inhibition at 1 µM ([3]; compounds of Table 3): 0%

Compound: CNC(=O)c1cc(Oc2ccc3nc(NC4CCCC4)oc3c2)ccn1 [Compound 23, 4-(2-Cyclopentylamino-benzooxazol-6-yloxy)-pyridine-2-carboxylic acid methylamide]
inhibition at 1 µM [1]: 50%
inhibition at 1 µM [3]: 0%

Compound: CNC(=O)c1cc(Oc2ccc3nc(NC4CCOCC4)oc3c2)ccn1 [Compound 30, 4-[2-(Tetrahydro-pyran-4-yl-amino)-benzooxazol-6-yloxy]-pyridine-2-carboxylic acid methylamide]
inhibition at 1 µM [1]: 25%
inhibition at 1 µM [3]: 14%

Compound: CNC(=O)c1cc(Oc2ccc3nc(N[C@@H](C(=O)NC)c4ccccc4)oc3c2)ccn1 [Compound 36, 4-{2-[((R)-Methylcarbamoyl-phenyl-methyl)-amino]-benzo-oxazol-6-yloxy}-pyridine-2-carboxylic acid methylamide]
inhibition at 1 µM [1]: 78%
inhibition at 1 µM [2]: 0%
inhibition at 1 µM [3]: 6%

Compound: CNC(=O)c1cc(Oc2ccc3nc(Nc4ccccc4CCN4CCCC4)oc3c2)ccn1 [Compound 43, 4-{2-[2-(2-Pyrrolidin-1-yl-ethyl)-phenylamino]-benzooxazol-6-yloxy}-pyridine-2-carboxylic acid methylamide]
inhibition at 1 µM [1]: 26%
inhibition at 1 µM [3]: 15%

Compound: CNC(=O)c1cc(Oc2ccc3nc(Nc4ccccc4-n4cnc(C)c4)oc3c2)ccn1 [Compound 45, 4-{2-[2-(4-Methyl-imidazol-1-yl)-phenylamino]-benzooxazol-6-yloxy}-pyridine-2-carboxylic acid methylamide]
inhibition at 1 µM [1]: 11%
inhibition at 1 µM [3]: 14%

Compound: CNC(=O)c1cc(Oc2ccc3nc(N[C@H]4c5ccccc5C[C@H]4O)oc3c2)ccn1 [Compound 49, 4-[2-((1S,2R)-2-Hydroxy-indan-1-ylamino)-benzooxazol-6-yloxy]-pyridine-2-carboxylic acid methylamide]
inhibition at 1 µM [1]: 55%
inhibition at 1 µM [2]: 63%
inhibition at 1 µM [3]: 25%
